Test results published in patent US12180187B2, “1-phenyl-5-azinylpyrazolyl-3-oxyalkyl acids and their use for controlling unwanted plant growth” (BAYER AKTIENGESELLSCHAFT, priority 2019, dated 2024).

What was measured:
[1] = tested on: VIOTR; assay: Pre-emergence action at 320 g/ha against VIOTR; format: in vivo, Viola tricolor; settings: dosage 320 g/ha
Summary of the method: (§1)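 Percent herbicidal activity was assessed by eye roughly three weeks post-application, comparing with untreated plants. Treatment consisted of applying formulated compound in water plus 0.5% additive to covering soil at 600 l/ha before emergence.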

[2] = tested on: STEME; assay: Post-emergence action against STEME, 1.28 kg/ha; format: in vivo, Stellaria media; settings: dosage 1280 g/ha, visual rating about 3 weeks after treatment vs untreated controls (100% = plants died)
Summary of the method: (§2)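 Greenhouse-grown weeds (sandy loam, twin-sown pots) were treated 2–3 weeks post-sowing at one leaf. The spray was an aqueous WP/EC preparation plus 0.5% additive, applied at 600 L/ha. Scoring was visual at ~3 weeks, 0–100% versus untreated controls.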

[3] = tested on: ABUTH; assay: Post-emergence action against ABUTH, 1.28 kg/ha; format: in vivo, Abutilon theophrasti; settings: dosage 1280 g/ha, visual rating about 3 weeks after treatment vs untreated controls (100% = plants died)
Summary of the method: as §2

[4] = tested on: AMARE; assay: Post-emergence action against AMARE, 1.28 kg/ha; format: in vivo, Amaranthus retroflexus; settings: dosage 1280 g/ha, visual rating about 3 weeks after treatment vs untreated controls (100% = plants died)
Summary of the method: as §2

[5] = tested on: AVEFA; assay: Post-emergence action at 320 g/ha against AVEFA; format: in vivo; settings: visual rating about 3 weeks after treatment vs untreated controls
Summary of the method: (§3)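 Herbicidal effect is scored by eye about 3 weeks after a foliar spray and expressed as percent activity, with untreated plants as 0% and dead plants as 100%. Treatment is applied at the one-leaf stage of greenhouse-grown, soil-sown plants, at a water rate of 600 l/ha containing 0.5% additive.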

[6] = tested on: DIGSA; assay: Pre-emergence action against DIGSA, 1280 g/ha; format: in vivo, Digitaria sanguinalis; settings: visual scoring after about 3 weeks vs untreated controls, 100% = plants have died, 0% = like control plants
Summary of the method: (§4)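 Pre-emergence pot test: seeds in sandy loam, soil-covered, sprayed on soil surface (WP/EC, 0.5% additive, 600 L/ha water); greenhouse ~3 wk; visual % effect vs untreated, 0–100%.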

[7] = tested on: ALOMY; assay: Pre-emergence action against ALOMY, 1280 g/ha; format: in vivo, Alopecurus myosuroides; settings: visual scoring after about 3 weeks vs untreated controls, 100% = plants have died, 0% = like control plants
Summary of the method: as §4

[8] = tested on: ECHCG; assay: Post-emergence action at 320 g/ha against ECHCG; format: in vivo, Echinochloa crus-galli; settings: dosage 320 g/ha, visual rating about 3 weeks after treatment vs untreated controls (100% = plants died)
Summary of the method: as §3

[9] = tested on: VERPE; assay: Pre-emergence action against VERPE, 1280 g/ha; format: in vivo, Veronica persica; settings: scored visually after about 3 weeks vs untreated controls (100% = plants have died)
Summary of the method: as §4

[10] = tested on: AMARE; assay: Post-emergence action at 320 g/ha against AMARE; format: in vivo, Amaranthus retroflexus; settings: visual rating about 3 weeks after treatment vs untreated controls
Description: (§5) Accordingly, the compounds of the invention have good herbicidal action against a broad spectrum of weed grasses and broad-leaved weeds and are therefore suitable for controlling unwanted vegetation by the post-emergence method. • b) Seeds of monocotyledonous and dicotyledonous weeds and crop plants are placed in sandy loam in plastic or organic planting pots, covered with soil and cultivated in a greenhouse under controlled growth conditions. 2 to 3 weeks after sowing, the test plants are treated at the one-leaf stage. The compounds of the invention, formulated in the form of wettable powders (WP) or as emulsion concentrates (EC), are then sprayed onto the green parts of the plants as aqueous suspension or emulsion with addition of 0.5% additive at a water application rate of 600 l/ha (converted). After the test plants have been kept in the greenhouse under optimum growth conditions for about 3 weeks, the activity of the preparations is rated visually in comparison to untreated controls. For example, 100% activity=the plants have died, 0% activity=like control plants. Tables 39 to 49 below show the effects of selected compounds of the general formula (I) according to Tables 1 and 2 on various harmful plants and at an application rate corresponding to 320 g/ha, which were obtained by the experimental procedure mentioned above.

[11] = tested on: PHBPU; assay: Post-emergence action at 320 g/ha against PHBPU; format: in vivo; settings: visual rating about 3 weeks after treatment vs untreated controls
Description: as §5

[12] = tested on: KCHSC; assay: Pre-emergence action against KCHSC, 1280 g/ha; format: in vivo, Bassia scoparia; settings: scored visually after about 3 weeks vs untreated controls (100% = plants have died)
Summary of the method: as §4

[13] = tested on: KCHSC; assay: Post-emergence action against KCHSC, 1.28 kg/ha; format: in vivo, Bassia scoparia; settings: dosage 1280 g/ha, visual rating about 3 weeks after treatment vs untreated controls (100% = plants died)
Summary of the method: as §2

[14] = tested on: ECHGC; assay: Pre-emergence action at 320 g/ha against ECHGC; format: in vivo, Echinochloa crus-galli; settings: visual scoring after about 3 weeks vs untreated controls
Summary of the method: as §1

Row | Compound | Pre-emergence action against VIOTR in % [1] | Post-emergence action against STEME [2] | Post-emergence action against ABUTH [3] | Post-emergence action against AMARE [4] | Post-emergence action against AVEFA in % [5] | Pre-emergence action against DIGSA [6] | Pre-emergence action against ALOMY [7] | Post-emergence action at 320 g/ha against ECHCG in % [8] | Pre-emergence action against VERPE [9] | Post-emergence action against AMARE in % [10] | Post-emergence action against PHBPU in % [11] | Pre-emergence action against KCHSC [12] | Post-emergence action against KCHSC [13] | Pre-emergence action against ECHGC in % [14]
1 | COC(=O)CNC(=O)COc1nn(-c2ccccc2F)c(-c2ccc(F)nc2)c1C(F)(F)F [Example X-007] | 100% | 100% | 90% | 90% | 80% | 100% | 100% | 80% | 100% |  |  |  |  | 
2 | COC(=O)[C@@H](C)Oc1nn(-c2ccccc2)c(-c2cncnc2)c1Br [VI-013] | 100% | 100% | 90% | 90% | 80% | 100% | 90% |  | 100% | 90% | 80% | 100% | 100% | 90%
3 | CCOC(=O)COc1nn(-c2ccccc2F)c(-c2ccc(F)nc2)c1I [VII-036] | 100% | 100% | 90% | 100% | 80% | 100% | 100% | 80% | 100% |  | 80% |  |  | 90%
4 | O=C(O)COc1nn(-c2ccccc2F)c(-c2ccc(F)nc2)c1I [VII-037] | 100% | 100% | 90% | 90% | 80% | 100% | 100% | 80% | 100% |  | 80% |  |  | 80%
5 | COCCOC(=O)COc1nn(-c2ccccc2F)c(-c2ccc(F)nc2)c1Br [VII-052] | 100% | 100% | 90% | 90% | 90% | 100% | 100% |  | 100% |  | 80% |  |  | 90%
6 | CCOC(=O)C(C)Oc1nn(-c2ccccc2F)c(-c2ccc(F)nc2)c1I (centres unmarked) [VII-057] | 100% |  |  | 100% |  | 100% | 100% |  | 100% |  |  | 100% | 90% | 
7 | COC(=O)[C@@H](C)Oc1nn(-c2cc(F)ccc2F)c(-c2ccc(F)nc2)c1Br [VII-062] | 100% | 100% |  |  | 90% | 100% | 100% | 80% | 100% |  | 80% | 100% | 90% | 
